Numbers after ± are expanded uncertainties.
Conditions: Crystal; triple pt. cell

Compound | Triple point temperature
[20Ne] [neon-20] | 24.54 ± 8e-05 K
[22Ne] [neon-22] | 24.69 ± 8e-05 K
